Experimental findings from ChEMBL document CHEMBL1201862, “PubChem BioAssay data set” (2004) are described below.

Molecules are shown by their SMILES. Activity calls are given as the source filed them. Bounds are passed on as bounds.

One assay concerns the target Kallikrein-7 (Homo sapiens, UniProt P49862). Briefly: Fluorescence Intensity-based biochemical primary high throughput dose response assay to identify activators of kallikrein-7 (K7) zymogen.
Assay [1] is described as follows: optical artefact potency, substrate without enzyme – biochemical, fluorescence intensity, triplicate, artefact control for kallikrein-7 zymogen activator project, dose response (AID 720493).
The nature of assay [2]: blockers of HIV-1 ZM109 envelope-driven cell-cell fusion – HeLa effector, CEM target cells, luciferase, cherry-pick, dose response (AID 652058).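 Note: luciferase signal from HIV-1 Env mediated cell-cell fusion of effector and target cells.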 Format: functional, cell-based.
The nature of assay [3]: general cell-killing toxicity readout – plate reader, dry powder samples, cytotoxicity control for PAX8 inhibitor project, dose response (AID 743021). Format: functional, cell-based.
The target of assay [4] is T1, Microphthalmia-associated transcription factor (Homo sapiens, UniProt O75030).
T1 sequence (O75030 whole entry): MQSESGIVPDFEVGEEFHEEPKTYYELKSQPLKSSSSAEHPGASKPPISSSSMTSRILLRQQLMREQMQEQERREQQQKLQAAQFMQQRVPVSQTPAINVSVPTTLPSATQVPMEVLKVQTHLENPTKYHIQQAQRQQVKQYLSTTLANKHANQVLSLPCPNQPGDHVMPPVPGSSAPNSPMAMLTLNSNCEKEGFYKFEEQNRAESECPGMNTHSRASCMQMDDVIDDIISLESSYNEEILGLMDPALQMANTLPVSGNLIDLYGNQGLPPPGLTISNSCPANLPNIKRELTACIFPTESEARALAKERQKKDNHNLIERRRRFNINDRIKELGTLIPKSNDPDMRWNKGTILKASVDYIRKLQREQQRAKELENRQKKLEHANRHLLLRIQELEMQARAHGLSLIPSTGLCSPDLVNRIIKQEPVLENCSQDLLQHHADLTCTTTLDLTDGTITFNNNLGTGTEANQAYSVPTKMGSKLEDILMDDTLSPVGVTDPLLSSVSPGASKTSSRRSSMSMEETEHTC
Nature of the assay: reducers of TRPM1 reporter luminescence, concentration series – cell-based, SK-MEL-5, cherry-picked, set 3, MITF inhibitor project, dose response (AID 493073).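 Note: SK-MEL-5 melanoma cells with luciferase driven by the MITF target TRPM1 promoter.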 The format is functional.

The nature of assay [5]: viability loss in HEK293T cells – cell-based, cherry-picks, cytotoxicity control for HIV Vif inhibitor project, dose response (AID 652208). The format is functional.
Assay [6] in a line: viability loss in CEM21 cells – cell-based, CellTiter-Glo luminescence, cherry-picked, cytotoxicity control for viral fusion inhibitor project, dose response (AID 652042).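 Note: potency for signal decrease meaning cytotoxicity.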 Format: functional. In general terms: Cellular ATP, detected with luciferase, serves as a proxy for viable cell number.
Assay [7] is described as follows: HIV-1 AD8 envelope cell-cell fusion blockers – cherry-pick, dose response (AID 652062).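 Note: luciferase signal from cell-cell fusion driven by HIV-1 clade B AD8 Env; potency is for inhibitors of fusion seen as a drop in luminescence.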 The format is functional, cell-based.
Assay [8] in a line: off-target signal loss in HeLa-CEM21 co-culture – HeLa F-luc CTL cells, cherry-picked, counter-screen for HIV-1 Env fusion inhibitor project, dose response (AID 652040).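 Note: potency for signal decrease marking cytotoxic or nonspecific inhibition.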 The format is functional, cell-based. (A counterscreen serves to expose hits that act by an unwanted route or on another target.)
The nature of assay [9]: blockers of HIV-1 envelope-mediated cell-cell fusion – cherry-pick, dose response (AID 652057). The format is functional, cell-based.
For another assay, the target named is Paired box protein Pax-8 (Homo sapiens, UniProt Q06710). Briefly: PAX8 transcriptional activity inhibition in RMG-I – RMG-I cells, luciferase, cherry-pick, dose response (AID 687027).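 Note: luciferase reporter driven by Pax8 target thyroperoxidase promoter measured by SteadyGlo luminescence.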 Format: functional, cell-based.
A further assay concerns HeLa. Nature of the assay: viability loss in HeLa cells – cell-based, ATP luminescence, cherry-pick samples, cytotoxicity control, dose response (AID 687004). The format is functional. The note with it: Homo sapiens.
Assay [10] in a line: viability loss in HepG2 liver cells – cell-based, ATP luminescence, cherry-pick, set 6, cytotoxicity control, dose response (AID 1053125). Format: functional.
Another assay is described as follows: cells. The following applies: A549.
Assay [11] in a line: A Cell-Based Confirmatory Screen for Compounds that Inhibit VEEV, TC-83 (8). The format is functional.
Assay [12] is described as follows: HeLa cell viability loss – 24 h, dry powder, set 2, cytotoxicity control, dose response (AID 651774). The format is functional, cell-based.
Assay [13] is described as follows: reduction of Shn3 3'UTR-driven luciferase in osteoblasts – cell-based, Clone20 osteoblasts, firefly luciferase, cherry-picked, dose response (AID 624132).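 Note: firefly luciferase luminescence from reporter carrying the Shn3 3'UTR in osteoblasts.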 Format: functional.
The nature of assay [14]: PAX5 cellular inhibition readout – cell-based, plate reader, dry powder samples, selectivity assay for PAX8 inhibitor project, dose response (AID 743047).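 Note: HEK293 cells carrying a Pax5 driven CD19 promoter luciferase reporter; potency of inhibitors that lower reporter luminescence.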 The format is functional.
In another assay the test system is HEK293. Nature of the assay: EBV LMP1 TES2 canonical NF-kB signalling blockers – cell-based, HEK293, luciferase, cherry-pick, dose response (AID 588343). Format: functional. The note with it: Homo sapiens.
The nature of assay [15]: OVCAR4 cell viability loss – plate reader, dry powder, SA11, cytotoxicity control for PAX8 inhibitor project, dose response (AID 743150). The following applies: OVCAR-4. Format: functional, cell-based.
Assay [16] is described as follows: inhibitors acting on PAX2 in cells – cell-based, plate reader, dry powder samples, selectivity assay for PAX8 inhibitor project, dose response (AID 743048).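 Note: HEK293 cells carrying a WT1 promoter luciferase reporter driven by expressed Pax2; potency is for inhibition of Pax2 driven reporter signal.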 The format is functional.
Assay [17] addresses Heat shock protein HSP 90-alpha (Homo sapiens, UniProt P07900). The format is functional, organism-based.
Assay [18] can be described thus: OV-90 cell viability loss – plate reader, dry powder, SA8, PAX8 inhibitor project, dose response (AID 743149). The format is functional, cell-based.
The nature of assay [19]: COV434 cell viability loss – plate reader, dry powder, SA7, cytotoxicity control for PAX8 inhibitor project, dose response (AID 743145). The format is functional, cell-based.
Assay [20] is described as follows: PAX8-dependent cell viability loss – plate reader, dry powder, dose response (AID 743049). Format: functional, cell-based.
Assay [21] is described as follows: non-specific 3'UTR reporter inhibition in Clone20-Shn3RL – cell-based, Renilla luciferase, cherry-picked, counter-screen for Shn3 inhibitor project, dose response (AID 624133). Format: functional.
Assay [22] can be described thus: A2780 cell killing – plate reader, dry powder samples, cytotoxicity control, dose response (AID 743046). The format is functional, cell-based.
Assay [23] in a line: loss of viability in HepG2 cells – cell-based, CellTiter-Glo, cherry-picked, cytotoxicity control for Shn3 inhibitor project, dose response (AID 624134). The format is functional.
Assay [24] is described as follows: toxicity toward immortalized ovarian surface epithelium – cell-based, plate reader, dry powder samples, cytotoxicity control for PAX8 inhibitor project, dose response (AID 743045). The format is functional.
The nature of assay [25]: IGROV1 cell killing – plate reader, dry powder samples, PAX8 inhibitor project, dose response (AID 743043). The format is functional, cell-based. The note with it: IGROV-1.
A short description of assay [26]: OVCAR-3 cell viability loss – plate reader, dry powder samples, PAX8 inhibitor project, dose response (AID 743044). Format: functional, cell-based.
Assay [27] is described as follows: COV362 cell viability loss – plate reader, dry powder, SA12, cytotoxicity control for PAX8 inhibitor project, dose response (AID 743144). The format is functional, cell-based.
The target of the next assay is Fatty acid synthase (Homo sapiens, UniProt P49327). Briefly: inhibition of human FAS-TE enzyme activity – biochemical, endpoint fluorescence intensity, powder samples, SAR follow-up (AID 652164). The format is functional.

As a reminder, the EC50 is the concentration giving half of the maximal effect. Broadly, the AC50 is the midpoint of the concentration-response curve, whichever way the signal moves. By IC50 is commonly meant the midpoint of a concentration-inhibition curve.

Sequence of Paired box protein Pax-8 (Q06710 whole entry): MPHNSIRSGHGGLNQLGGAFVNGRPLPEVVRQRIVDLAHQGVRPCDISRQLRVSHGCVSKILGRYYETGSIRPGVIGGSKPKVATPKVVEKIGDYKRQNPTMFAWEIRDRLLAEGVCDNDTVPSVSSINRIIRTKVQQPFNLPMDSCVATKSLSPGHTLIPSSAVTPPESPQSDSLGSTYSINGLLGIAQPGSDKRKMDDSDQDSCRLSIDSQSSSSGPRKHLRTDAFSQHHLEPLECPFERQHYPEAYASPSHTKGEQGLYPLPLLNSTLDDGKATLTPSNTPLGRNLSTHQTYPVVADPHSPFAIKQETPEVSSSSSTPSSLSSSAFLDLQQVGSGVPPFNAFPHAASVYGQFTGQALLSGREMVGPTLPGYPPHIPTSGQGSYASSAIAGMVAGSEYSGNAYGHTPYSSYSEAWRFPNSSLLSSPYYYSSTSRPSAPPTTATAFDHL
Sequence of Fatty acid synthase (P49327 whole entry): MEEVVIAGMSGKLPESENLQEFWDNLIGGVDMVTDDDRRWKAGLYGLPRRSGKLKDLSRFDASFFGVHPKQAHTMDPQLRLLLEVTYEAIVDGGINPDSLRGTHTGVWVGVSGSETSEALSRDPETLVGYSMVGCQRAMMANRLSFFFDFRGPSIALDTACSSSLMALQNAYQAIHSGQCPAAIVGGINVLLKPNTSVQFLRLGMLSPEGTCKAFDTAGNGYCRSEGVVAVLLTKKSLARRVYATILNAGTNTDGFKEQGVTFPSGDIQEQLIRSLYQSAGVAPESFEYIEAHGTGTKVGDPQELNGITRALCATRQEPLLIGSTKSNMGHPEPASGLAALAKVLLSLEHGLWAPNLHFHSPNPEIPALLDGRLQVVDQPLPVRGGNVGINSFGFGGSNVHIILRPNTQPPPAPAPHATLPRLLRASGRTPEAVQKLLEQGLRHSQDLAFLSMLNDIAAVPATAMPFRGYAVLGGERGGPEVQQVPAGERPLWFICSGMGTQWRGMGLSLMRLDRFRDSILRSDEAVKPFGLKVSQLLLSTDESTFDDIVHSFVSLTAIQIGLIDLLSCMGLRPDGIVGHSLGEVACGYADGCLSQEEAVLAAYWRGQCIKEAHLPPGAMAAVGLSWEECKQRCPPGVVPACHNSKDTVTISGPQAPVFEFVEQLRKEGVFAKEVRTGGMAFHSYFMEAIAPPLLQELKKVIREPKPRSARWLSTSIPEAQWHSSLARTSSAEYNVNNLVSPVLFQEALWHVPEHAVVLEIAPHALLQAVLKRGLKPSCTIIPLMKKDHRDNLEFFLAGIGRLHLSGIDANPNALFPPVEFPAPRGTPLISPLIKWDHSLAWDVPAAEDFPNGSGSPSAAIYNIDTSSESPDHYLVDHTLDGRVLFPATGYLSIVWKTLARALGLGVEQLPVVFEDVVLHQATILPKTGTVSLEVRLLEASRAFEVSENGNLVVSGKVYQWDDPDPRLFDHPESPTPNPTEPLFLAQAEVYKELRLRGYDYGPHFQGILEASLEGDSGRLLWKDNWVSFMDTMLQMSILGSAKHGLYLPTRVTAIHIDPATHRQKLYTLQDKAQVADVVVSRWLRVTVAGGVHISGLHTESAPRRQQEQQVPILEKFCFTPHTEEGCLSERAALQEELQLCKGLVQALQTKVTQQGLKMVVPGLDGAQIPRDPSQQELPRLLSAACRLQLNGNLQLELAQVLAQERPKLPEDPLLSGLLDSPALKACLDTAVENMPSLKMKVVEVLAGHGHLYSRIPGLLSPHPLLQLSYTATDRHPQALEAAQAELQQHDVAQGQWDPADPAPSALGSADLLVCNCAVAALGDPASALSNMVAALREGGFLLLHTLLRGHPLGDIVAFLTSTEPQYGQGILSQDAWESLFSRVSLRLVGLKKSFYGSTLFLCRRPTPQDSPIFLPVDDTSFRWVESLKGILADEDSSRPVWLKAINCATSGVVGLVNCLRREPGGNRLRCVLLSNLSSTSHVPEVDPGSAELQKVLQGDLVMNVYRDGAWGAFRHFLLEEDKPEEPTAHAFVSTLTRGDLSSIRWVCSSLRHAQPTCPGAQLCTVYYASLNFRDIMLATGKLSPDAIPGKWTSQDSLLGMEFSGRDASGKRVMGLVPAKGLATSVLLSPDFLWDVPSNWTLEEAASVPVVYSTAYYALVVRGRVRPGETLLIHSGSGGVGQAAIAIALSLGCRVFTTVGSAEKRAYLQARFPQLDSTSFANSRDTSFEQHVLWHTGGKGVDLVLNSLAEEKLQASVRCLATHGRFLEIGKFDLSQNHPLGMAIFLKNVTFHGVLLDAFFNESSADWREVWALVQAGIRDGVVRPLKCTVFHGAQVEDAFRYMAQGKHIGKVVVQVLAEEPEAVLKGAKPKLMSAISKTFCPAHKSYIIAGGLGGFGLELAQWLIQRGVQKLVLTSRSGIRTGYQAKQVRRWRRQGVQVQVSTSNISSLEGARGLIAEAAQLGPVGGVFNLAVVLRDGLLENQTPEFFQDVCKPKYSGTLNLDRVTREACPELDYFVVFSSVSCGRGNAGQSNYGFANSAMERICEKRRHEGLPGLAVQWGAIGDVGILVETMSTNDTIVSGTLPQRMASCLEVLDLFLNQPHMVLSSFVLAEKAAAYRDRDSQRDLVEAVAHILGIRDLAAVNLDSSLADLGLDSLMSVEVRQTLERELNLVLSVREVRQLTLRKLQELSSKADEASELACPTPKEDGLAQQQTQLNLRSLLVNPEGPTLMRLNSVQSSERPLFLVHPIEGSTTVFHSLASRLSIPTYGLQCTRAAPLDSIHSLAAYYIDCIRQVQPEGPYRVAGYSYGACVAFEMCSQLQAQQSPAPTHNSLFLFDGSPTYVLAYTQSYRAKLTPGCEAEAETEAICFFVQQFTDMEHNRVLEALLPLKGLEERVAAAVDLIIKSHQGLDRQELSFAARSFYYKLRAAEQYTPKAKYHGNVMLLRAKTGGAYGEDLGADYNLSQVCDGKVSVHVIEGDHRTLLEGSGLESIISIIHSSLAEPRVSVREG
Sequence of Kallikrein-7 (P49862 whole entry): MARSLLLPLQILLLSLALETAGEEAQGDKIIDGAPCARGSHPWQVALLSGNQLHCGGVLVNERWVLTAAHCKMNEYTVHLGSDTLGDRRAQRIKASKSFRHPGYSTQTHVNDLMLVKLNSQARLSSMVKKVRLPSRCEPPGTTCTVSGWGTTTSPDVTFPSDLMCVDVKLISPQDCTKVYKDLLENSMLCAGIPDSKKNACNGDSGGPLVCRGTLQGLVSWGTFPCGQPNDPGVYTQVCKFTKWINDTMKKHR

Consider `CNc1cc(C)c(C#N)c2nc3ccccc3n12`, for which the EC50 on Kallikrein-7 is 3.77 µM (active); in assay [1], > 2.58 µM (active).

With `OCC1OC(n2cnc3c(NCc4ccco4)ncnc32)C(O)C1O` (centres undefined), the half-maximal activity concentration (AC50) in [2] is 6.03 µM (active); in assay [3], 1.38 µM (active); in assay [4] it was 3.88 µM (active); in assay [5], 13.8 µM (active); in [6], 2.94 µM (active); in assay [7] it was 6.9 µM (active). In addition, the half-maximal activity concentration (AC50) in assay [8] is 36.8 µM (active); in [9], 7.32 µM (active); at Paired box protein Pax-8, 2.41 µM (active).

On to `O=C1CCC(C(=O)Nc2cccc(C(F)(F)F)c2)N1` (centres undefined), for which, in the assay with HeLa, the AC50 was > 52 µM (inactive).

Turning to `O=C(NNc1c2ccccc2nc2ccccc12)c1ccc(O)cc1`, the AC50 (in assay [10]; in “cells”) was > 52 µM (inactive) in each case.

Regarding `O=c1c2cc([N+](=O)[O-])ccc2nc(C2CCNCC2)n1-c1ccccc1`, in assay [11], the IC50 is 3.88 µM (active).

In the case of `CNC(=O)Cc1ccc(-c2ccccc2)cc1`, the AC50 in assay [12] is > 70 µM (inactive).

For the compound `CC(=O)NC(c1ccc(Cl)cc1)c1ccc2cccnc2c1O` (centres undefined), the half-maximal activity concentration (AC50) was 0.299 µM (active) in assay [13]; 2.31 µM (active) in [14]; 4.08 µM (active) with HEK293; 18.1 µM (active) in assay [15]; 1.57 µM (active) in assay [16]; 2.68 µM (active) in assay [17]. Moreover, the AC50 in assay [18] was 5.27 µM (active); in [19], 5.09 µM (active); in assay [20] it was 8.52 µM (active); in assay [21], 0.977 µM (active); in [22] it was 20.8 µM (active); in assay [23], 1.47 µM (active). In addition, the AC50 in [24] was 4.43 µM (active); in assay [25], 7.12 µM (active); in [26], 4.57 µM (active); on Paired box protein Pax-8 it was 2.09 µM (active); in assay [27] it was 7.17 µM (active).

With `CN(C)S(=O)(=O)c1ccc(-c2csc(NC(=O)C3CCC3)n2)cc1`, the 50% inhibitory concentration (IC50) on Fatty acid synthase is 1.36 µM (active).
